Data reported in patent publication US20100099756A1, “USES OF INCENSOLE, INCENSOLE ACETATE AND DERIVATIVES THEREOF” (YISSUM RESEARCH DEVELOPMENT COMPANY OF THE HEBREW …, priority 2006, published 2010).

What was measured:
TRPV1 = TRPV1 (Homo sapiens, UniProt Q8NER1); assay: Calcium imaging of TRPV1-transfected HEK293 cells; assay type: cell-based; conditions: IA 100 μM, compared to vehicle
Protocol: All error bars indicate SEM; p values in all subfigures but c represent analysis with one-way ANOVA Bonferroni's post hoc.
Human HEK 293 cells stably expressing TRPV1 were a kind gift from Merck Research Laboratories (Whitehouse Station, N.J.). Cells were cultured in minimal essential medium, Eagle, modified with non-essential amino acids, 1 mM sodium pyruvate, 2 mM L-glutamine and 1.5 g/L sodium bicarbonate (ATCC, Mabassas, Va.), containing 1% Penicillin-streptomycin, and 10% foetal bovine serum. Cells were passaged three times a week using Trypsin-EDTA 1× (Invitrogen, Carlsbad, Calif.) and grown under 5% CO2 at 37° C.
Calcium imaging of HEK 293 cells. TRPV1, TRPV3, and TRPV4 expressing HEK293 cells were plated 24-48 h before imaging in 96 well plates, loaded with 3 μM Fura-2 AM and imaged as previously described [O'dell, D. K., Rimmerman, N., Pickens, S. R. & Walker J. M. Fatty acyl amides of endogenous tetrahydroisoquinolines are active at the recombinant human TRPV1 receptor. […] Med. Chem. 15, 6164-6169 (2007)].

ROS generation = assay: ROS production by zymosan-activated RAW 264.7 macrophages (chemiluminescence); assay type: cell-based, mice
Protocol: (A(1)) Representative Western Blot bands of Cox2 are shown with tubulin as reference. (A(2)) COX-2 levels were measured in RAW 264.7 cells incubated for 24 hrs. with LPS in the presence or in the absence of IA (60 μM/ml); **, p<0.001. (B) Murine peritoneal macrophages were activated by LPS (1 μg/ml for 24 hrs.) in absence of IA or in the presence of IA at indicated concentrations. NO generation was determined by measuring the nitrite accumulated in the supernatants; **, p<0.001. (C) Generation of ROS by RAW 264.7 macrophages (5×10^5 cells in 0.5 ml Hanks' balanced salt solution) was measured by chemiluminescence. Cells were pre-incubated with various doses of IA for 24 hrs before luminol (10 μl) and zymosan (30 μl) were added to the tubes; *, p<0.05; **, p<0.01; ***, p<0.001
ROS (Reactive Oxygen Species) Production by RAW 264.7 Macrophages. Raw 264.7 cells were scrapped, washed and resuspended in Hanks' balanced salt solution (without phenol red). For measurement of chemiluminescence, 0.5 ml of cell suspension (5×10^5 cells) was added to each luminometer tube, together with various doses of IA tested (dissolved in ethanol and further diluted with Hanks). […] 10 μl of luminol (Sigma, St. Louis, USA) and 30 μl of zymosan (Sigma, St. Louis, USA) were added to the tubes, and the chemiluminescence was measured immediately in a luminometer (Biolumate LB 95, Berhold, Wilbad, Germany).

TRPV3 = target: T1, TRPV3 (Mus musculus, UniProt Q8K424); assay: Porsolt forced swimming test in WT and TRPV3−/− mice; assay type: in vivo, C57BL/6 mice; set-up: from tissue; host or cells: whole animal, wild type C57BL/6 female mice (TRPV3 KO as control); conditions: 75 mg/kg
T1 sequence (Q8K424 1-791): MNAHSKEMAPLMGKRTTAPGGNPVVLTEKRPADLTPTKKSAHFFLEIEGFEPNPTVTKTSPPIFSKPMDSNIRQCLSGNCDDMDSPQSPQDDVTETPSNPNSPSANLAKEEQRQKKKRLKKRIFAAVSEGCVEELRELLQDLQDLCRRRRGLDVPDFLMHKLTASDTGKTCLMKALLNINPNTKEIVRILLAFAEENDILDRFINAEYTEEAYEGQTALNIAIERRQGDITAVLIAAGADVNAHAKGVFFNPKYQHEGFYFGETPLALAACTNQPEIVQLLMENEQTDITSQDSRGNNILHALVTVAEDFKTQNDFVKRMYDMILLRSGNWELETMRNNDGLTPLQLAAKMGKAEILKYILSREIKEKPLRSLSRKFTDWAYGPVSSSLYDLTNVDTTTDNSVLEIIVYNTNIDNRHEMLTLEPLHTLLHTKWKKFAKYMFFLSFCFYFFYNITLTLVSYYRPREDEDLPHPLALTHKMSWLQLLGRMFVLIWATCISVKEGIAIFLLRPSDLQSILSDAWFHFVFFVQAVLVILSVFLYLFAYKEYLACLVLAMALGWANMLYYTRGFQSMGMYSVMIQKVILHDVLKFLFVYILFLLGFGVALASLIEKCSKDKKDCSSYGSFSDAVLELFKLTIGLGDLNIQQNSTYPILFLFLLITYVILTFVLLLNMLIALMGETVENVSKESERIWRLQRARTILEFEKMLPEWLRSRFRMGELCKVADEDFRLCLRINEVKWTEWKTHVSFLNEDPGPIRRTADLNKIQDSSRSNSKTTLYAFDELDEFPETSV
Protocol: Wild type and TRPV3^−/− mice (18-20 weeks old) were injected with vehicle (isopropanol:emulphor:saline=1:1:18) or IA (75 mg/kg). 30 min later they were tested in a, the elevated plus maze (5 min), followed by b, 9 min exposure to the Porsolt forced-swimming test. […] Data are presented as means±SEM; n=4-5. * p<0.05, compared to WT-Vehicle-injected mice (Bonferroni post hoc test). ** p<0.01, compared to WT-Vehicle-injected mice (Bonferroni post hoc test).
Animals and procedures. Female Sabra mice (Harlan, Israel, 15-20 weeks old) and wild type C57BL/6 or TRPV3 KO female mice (18-20 weeks old) [Chung, M. K., Lee, H., Mizuno, A., Suzuki, M. & Caterina, M. J. TRPV3 and TRPV4 mediate warmth-evoked currents in primary mouse keratinocytes. J. Biol. Chem. 279, 21569-21575 (2004)] were used for behavioral assessments. 10 mice were housed in each cage. The animal care and protocols met the guidelines of the U.S. National Institutes of Health, detailed in the Guide for the Care and Use of Laboratory Animals, and were applied in conformity with the Institutional Ethics Committees. For the c-Fos immunostaining, female Sabra mice (see above) were used. Temperature in the animal room was maintained between 20-22° C., the light cycle was 12 h lights on (8:00-20:00 h); 12 h lights off (20:00-8:00 h). […]

Sequence of TRPV1 (Q8NER1 whole entry): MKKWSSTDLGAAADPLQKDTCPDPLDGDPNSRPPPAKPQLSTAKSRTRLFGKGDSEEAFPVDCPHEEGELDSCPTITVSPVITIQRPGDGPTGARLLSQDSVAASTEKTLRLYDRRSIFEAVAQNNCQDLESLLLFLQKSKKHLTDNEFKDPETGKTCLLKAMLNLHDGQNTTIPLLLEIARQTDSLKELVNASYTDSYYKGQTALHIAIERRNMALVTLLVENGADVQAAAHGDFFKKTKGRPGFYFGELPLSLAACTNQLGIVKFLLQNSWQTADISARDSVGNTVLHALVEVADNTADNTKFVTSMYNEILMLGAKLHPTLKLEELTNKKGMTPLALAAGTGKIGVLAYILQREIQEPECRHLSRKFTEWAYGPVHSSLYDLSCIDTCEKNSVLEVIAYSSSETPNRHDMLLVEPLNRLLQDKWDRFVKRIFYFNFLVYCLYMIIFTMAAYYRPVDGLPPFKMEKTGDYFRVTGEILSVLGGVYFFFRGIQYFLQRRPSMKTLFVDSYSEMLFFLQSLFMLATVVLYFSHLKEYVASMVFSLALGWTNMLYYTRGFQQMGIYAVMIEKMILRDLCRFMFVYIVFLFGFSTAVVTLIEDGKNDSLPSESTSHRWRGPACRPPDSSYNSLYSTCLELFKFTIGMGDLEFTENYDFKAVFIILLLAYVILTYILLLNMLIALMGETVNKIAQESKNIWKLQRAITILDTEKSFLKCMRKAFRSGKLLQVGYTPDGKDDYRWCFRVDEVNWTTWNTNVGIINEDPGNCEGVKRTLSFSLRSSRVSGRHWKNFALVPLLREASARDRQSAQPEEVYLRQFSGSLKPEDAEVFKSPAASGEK

With `CC(=O)OC1CC/C(C)=C/CC/C(C)=C/CC2(C(C)C)CCC1(C)O2` (stereo not shown) [IA, incensole acetate] the “calcium influx in TRPV1-transfected HEK293 cells” value (TRPV1) was “very small influx of calcium”, the inhibition at 60 µM (ROS generation; Mus musculus, RAW264.7, at 60 μM, p=0.0021) was roughly 45% and the “ROS generation, dose dependence” value (ROS generation; three concentrations, 24 hrs pre-incubation, ANOVA P<0.0001) was “significant dose-dependent inhibitory effect”. For the same compound, the “immobility time, WT mice” value (TRPV3) was “significantly reduced the immobility time”.
